In US20090029949A1, “GPCR Ligands Identified by Computational Modeling” (priority 2006, published 2009):
“Also recorded” adds a separate entry of the source. Peptide text beside a SMILES is read from it. * marks the point of attachment. Dnp = O=[N+]([O-])c1ccc(*)c([N+](=O)[O-])c1

Columns and labels:
LPA2 = LPA2 (Homo sapiens, UniProt Q9HBW0); test: LPA agonist/antagonist activity at LPA2 (Table 2); assay type: cell-based; details: for LPA2 effect: result in words
LPA3 = molecular target: T1, LPA3 (Homo sapiens, UniProt Q9UBY5); test: LPA agonist/antagonist activity at LPA3 (Table 2); assay type: cell-based; details: for LPA3 effect: result in words; for LPA3 inhibition of 200 nM LPA response at 30JM: compound at 30JM
T1 sequence (Q9UBY5 1-353): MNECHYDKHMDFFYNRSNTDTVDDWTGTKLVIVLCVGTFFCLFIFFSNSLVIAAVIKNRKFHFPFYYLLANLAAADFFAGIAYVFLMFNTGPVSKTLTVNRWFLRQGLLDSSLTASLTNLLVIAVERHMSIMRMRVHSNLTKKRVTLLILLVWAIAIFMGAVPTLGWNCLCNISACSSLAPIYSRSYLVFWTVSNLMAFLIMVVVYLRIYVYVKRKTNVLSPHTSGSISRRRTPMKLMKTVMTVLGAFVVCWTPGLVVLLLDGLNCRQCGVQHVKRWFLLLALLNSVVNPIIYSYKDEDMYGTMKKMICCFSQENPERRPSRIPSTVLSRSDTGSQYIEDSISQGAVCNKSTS

LPA1 = LPA1 (Homo sapiens, UniProt Q92633); test: LPA agonist/antagonist activity at LPA1 (Table 2); assay type: cell-based; details: for LPA1 effect: result in words
Sequence of LPA1 (Q92633 whole entry, species assumed): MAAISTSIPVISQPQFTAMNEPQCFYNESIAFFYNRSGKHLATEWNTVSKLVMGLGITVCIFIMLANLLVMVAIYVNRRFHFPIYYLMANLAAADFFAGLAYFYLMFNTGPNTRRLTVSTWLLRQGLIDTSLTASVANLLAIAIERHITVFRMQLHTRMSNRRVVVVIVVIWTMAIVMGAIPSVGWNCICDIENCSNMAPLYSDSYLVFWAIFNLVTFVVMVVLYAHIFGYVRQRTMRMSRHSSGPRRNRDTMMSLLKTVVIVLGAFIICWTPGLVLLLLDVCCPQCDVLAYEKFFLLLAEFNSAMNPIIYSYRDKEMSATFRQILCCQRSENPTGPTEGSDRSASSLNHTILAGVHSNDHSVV

WT S1P1 = WT S1P1 (Homo sapiens, UniProt P21453); test: Ligand-induced [35S]GTPγS binding, WT S1P1; assay type: biochemical; parameters: expressed in transfected cells; host or cells: RH7777 (transient, pcDNA3.1); details: for S1P1 receptor activation in the GTPγS activation assay: at 10 μM, versus vehicle; for S1P1 agonist character: result in words
Sequence of WT S1P1 (P21453 whole entry): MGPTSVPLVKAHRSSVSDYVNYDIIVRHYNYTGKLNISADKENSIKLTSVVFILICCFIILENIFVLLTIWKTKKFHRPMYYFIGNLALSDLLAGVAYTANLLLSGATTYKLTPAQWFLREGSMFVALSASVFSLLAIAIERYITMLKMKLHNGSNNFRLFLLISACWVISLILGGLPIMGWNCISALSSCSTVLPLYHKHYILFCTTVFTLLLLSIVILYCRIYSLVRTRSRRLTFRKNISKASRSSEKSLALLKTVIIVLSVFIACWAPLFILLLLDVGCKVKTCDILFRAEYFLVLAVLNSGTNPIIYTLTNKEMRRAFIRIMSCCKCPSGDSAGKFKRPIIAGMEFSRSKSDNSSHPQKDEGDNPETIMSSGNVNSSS
Description: (§1) RH7777 and HEK-293 cells (ATCC, Manassas, Va.) were maintained in Dulbecco's modified minimal essential medium (DMEM) containing 10% fetal bovine serum (Hyclone, Logan, Utah). Cells (2×10^6) were transfected with 2 μg of plasmid DNA with Effectene (Qiagen, Valencia, Calif.) according to the manufacturer's instructions, for 24 h. Before ligand binding and receptor activation assays, the cells were washed twice with serum-free DMEM and serum-starved for at least 6 h.
(§2) S1P1 Receptor Activation Assays Receptor functional assays were performed in transiently transfected RH7777 cells by measuring S1P-activated [^35S]GTPγS binding as previously described (28).

S1P1 mutant F5.48G = molecular target: T2, S1P1 mutant F5.48G (Homo sapiens, UniProt P21453, F210G); test: [35S]GTPγS binding, S1P1 F5.48G; assay type: biochemical; details: S1P1 F5.48G, result in words, compared with S1P
T2 construct: expressed in transfected cells
T2 sequence (P21453 whole entry F210G): as the sequence (P21453 whole entry) above, with F210G counted along it
Description: as §1, §2

S1P1 mutant W6.48A = molecular target: T3, S1P1 mutant W6.48A (Homo sapiens, UniProt P21453, W269A); test: [35S]GTPγS binding, S1P1 W6.48A; assay type: biochemical; details: S1P1 W6.48A, result in words, compared with S1P
T3 construct: expressed in transfected cells
T3 sequence (P21453 whole entry W269A): as the sequence (P21453 whole entry) above, with W269A counted along it
Description: as §1, §2

S1P1 mutant L3.36E = S1P1 mutant L3.36E (Homo sapiens, UniProt P21453, L128E); test: [35S]GTPγS binding, S1P1 L3.36E; assay type: biochemical; parameters: expressed in transfected cells; host or cells: RH7777 (transient, pcDNA3.1); details: S1P1 L3.36E, result in words, compared with S1P
Sequence of S1P1 mutant L3.36E (P21453 whole entry L128E): as the sequence (P21453 whole entry) above, with L128E counted along it
Description: as §1, §2

S1P1 mutant V6.40L = molecular target: T4, S1P1 mutant V6.40L (Homo sapiens, UniProt P21453, V261L); test: [35S]GTPγS binding, S1P1 V6.40L; assay type: biochemical; details: S1P1 V6.40L, result in words
T4 construct: expressed in transfected cells; host or cells: RH7777
T4 sequence (P21453 whole entry V261L): as the sequence (P21453 whole entry) above, with V261L counted along it
Description: as §1, §2

Sequence of LPA2 (Q9HBW0 whole entry, species assumed): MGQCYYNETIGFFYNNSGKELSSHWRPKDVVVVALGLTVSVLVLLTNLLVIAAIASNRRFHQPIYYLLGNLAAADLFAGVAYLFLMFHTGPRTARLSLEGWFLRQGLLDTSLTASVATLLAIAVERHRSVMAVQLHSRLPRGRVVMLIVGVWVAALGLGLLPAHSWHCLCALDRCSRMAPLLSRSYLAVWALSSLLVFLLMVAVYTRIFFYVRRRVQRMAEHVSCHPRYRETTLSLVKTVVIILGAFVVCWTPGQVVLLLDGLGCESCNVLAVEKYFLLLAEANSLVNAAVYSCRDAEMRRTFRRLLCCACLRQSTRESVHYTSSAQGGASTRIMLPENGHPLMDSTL

| Compound | LPA2 effect (LPA2) | LPA1 effect (LPA1) | IC50 (LPA2) | IC50 (LPA3) | LPA3 Inhibition of 200 nM LPA response (LPA3) | other results |
| --- | --- | --- | --- | --- | --- | --- |
| OC1C(O)[C@@H](COP(O)(O)=S)O[C@H]1n1cnc2c(NCc3ccccc3)ncnc21 (some centres unmarked) | PotentiatesLPA-inducedactivation | No effect |  |  |  | LPA3 effect (LPA3): No effect |
| CCN(CC)CCOc1ccc(/C(C#N)=C\c2ccc(C(F)(F)F)cc2)cc1 [NSC59474] |  |  |  |  |  | S1P1 receptor activation in the GTPγS activation assay (WT S1P1): GTPγS activation greater than that of the vehicle; S1P1 agonist character (WT S1P1): partial agonists |
| O=C(c1ccccc1Cc1ccc2ccc(C(F)(F)F)cc2c1)c1cccc2ccccc12 [NSC99548] |  |  |  |  |  | S1P1 receptor activation in the GTPγS activation assay (WT S1P1): GTPγS activation greater than that of the vehicle; S1P1 agonist character (WT S1P1): partial agonists |
| Cc1cc2nc3c(=O)[nH]c(=O)nc-3n(CCOC(=O)CCC(=O)O)c2cc1C [NSC 3066] |  |  | 167 nM | 103 nM |  | Ki (LPA2): 78.7 nM; Ki (LPA3): 44.8 nM; IC50 (LPA1): 197 nM; Ki (LPA1): 91.7 nM |
| COc1ccc(C(=O)CCCC(=O)O)c(OC)c1O [NSC 10167] |  | No Effect | 88 nM | 517 nM | 49.9% | LPA2 Inhibition of 10 nM LPA response (LPA2): 47.4% |
| O=C(NC(Cc1ccc2c(c1)OCO2)C(=O)O)c1ccccc1 (centres unmarked) [NSC 10188] |  | Weak agonist | 6900 nM |  |  | LPA2 inhibition of 200 nM LPA response at 30JM (LPA2; 200 nM LPA, compound at 30JM): 55.8%; LPA3 effect (LPA3): No effect |
| COC(=O)C(CCC(=O)O)N1C(=O)c2ccccc2C1=O (centres unmarked) [NSC 16540] |  | No effect | 100 nM | 231 nM | 59.7% | LPA2 Inhibition of 10 nM LPA response (LPA2): 50.9% |
| O=C(O)CCC(NC(=O)OCc1ccccc1)C(=O)NC(Cc1ccccc1)C(=O)O (centres unmarked) [NSC 18760] |  | No effect | 20 nM | 9 nM | 58.7% | LPA2 Inhibition of 10 nM LPA response (LPA2): 53.3% |
| O=C(O)/C=C/C(=O)Nc1cccc(NC(=O)/C=C/C(=O)O)c1C(=O)O [NSC 47091] |  | No effect | 355 nM | 30 nM | 81.7% | LPA2 Inhibition of 10 nM LPA response (LPA2): 53.5% |
| Cn1c(=O)c2c(nc(C(=N)SCC(=O)O)n2C)n(C)c1=O [NSC 62586] |  |  | 172 nM | 35 nM |  | Ki (LPA2): 117 nM; Ki (LPA3): 15.7 nM; IC50 (LPA1): 234 nM; Ki (LPA1): 91.7 nM |
| COc1ccc2c(c1)c(CC(=O)O)c(C)n2C(=O)c1ccc(Cl)cc1 [NSC 77541] | No Effect | Weak agonist |  |  |  | LPA3 inhibition of 200 nM LPA response at 30JM (LPA3): 76.2% |
| CCCC(=O)Nc1ncnc2c1ncn2C1OC2COP(=O)(O)OC2C1OC(=O)CCC (centres unmarked) [NSC 143108] | No Effect | Weak agonist |  | 1310 nM |  | LPA3 inhibition of 200 nM LPA response at 30JM (LPA3): 61.0% |
| NCC(=O)NC(CSc1ccc([N+](=O)[O-])cc1[N+](=O)[O-])C(=O)NC(CCC(=O)O)C(=O)O (centres unmarked) [NSC 161613] (H-Gly-Cys(Dnp)-Glu-OH; configuration not given here) | No effect | No effect |  | 24 nM | 69.8% |  |
| O=P(O)(O)OC[C@H]1O[C@@H](n2cnc3c(NCc4ccccc4)ncnc32)C(O)C1O (some centres unmarked) [NSC 255523] | No effect | No effect |  |  |  | LPA3 effect (LPA3): PotentiatesLPA-inducedactivation |
| FC(F)(F)c1cccc(-c2noc(-c3cc(-c4ccccc4)c(C(F)(F)F)s3)n2)c1 [SEW2871] |  |  |  |  |  | ligand-induced GTPγS activation (S1P1 mutant F5.48G): similarly impaired activation; ligand-induced GTPγS activation (S1P1 mutant W6.48A): similarly impaired activation; ligand-induced GTPγS activation (S1P1 mutant L3.36E): similarly impaired activation; ligand-induced GTPγS activation (S1P1 mutant V6.40L): slightly activated; also recorded: partial activation; ligand-induced GTPγS activation (S1P1 mutant V6.40L; listed as SE2871): dose-dependent partial activation |
